Measured values from patent US20250346592A1 (Celgene Corporation, priority 2022, published 2025).

target: hPAD4 enzyme (Homo sapiens (Human), UniProt Q9UM07); assay: RFMS1 assay (RapidFire mass spectrometry, BAEE substrate); assay type: biochemical; conditions: 5 nM hPAD4, 250 μM BAEE, 30 min preincubation at 37° C., 90 min reaction; read-out: RFMS 1 IC50
Method: Compounds were solubilized in 100% DMSO to achieve a 10 mM compound concentration. Compound stock solutions were stored at RT. A series of dilutions were prepared in DMSO and mixed 8 times with 20 μL mixing volume. Final top concentration of compound in the assay is 50 μM. Final assay conditions were as follows: • Reaction volume: 26 μl • Assay buffer: 25 mM hepes, pH 7.5, 5 mM NaCl, 1 mM DTT, 0.2 mg/ml BSA, 0.01% CHAPS, 50 µM Calcium, and 5 μM TPEN • Final concentrations: 5 nM hPAD4 enzyme, 250 µM BAEE, and 0.5% DMSO • Total incubation time: 30 mins compound and enzyme preincubation at 37° C., 90 min enzyme/substrate reaction, 30 min reaction with phenyl glyoxal at 37° C. • Stop solution: 40 μl 5% TCA in ACN • 0.13 μL of compound solution was added to 13 μL of 10 nM PAD4 in assay buffer. After […] min 13 μl of 500 µM of BAEE was added in 25 mM hepes, pH 7.5, 5 mM NaCl, 1 mM DTT, 0.2 mg/ml BSA, 0.01% CHAPS, 50 μM Calcium, 5 μM TPEN was added and the reaction incubated for 90 min at 37° C. The enzymatic reaction was quenched by addition of 15 μl of 6.1N TCA, 100% Final Concentration is 20%, 35 μl of 8.5 mM phenyl glyoxal (final concentration 4 mM) is then added and the reaction is incubated for 30 min at 37° C.
After 30 minutes the plates are spun down to remove all precipitate. The enzyme reaction was quenched with an equal volume of methanol containing internal standard (modified citrulline). Samples were loaded onto the Rapid Fire RF300 system (Agilent) wherein they were first sipped for 1000 ms and then directly loaded to a C18 separations cartridge using a mixture of acetonitrile containing 0.01% formic acid for 3000 ms desalting. The flow rate of the mobile phase was 1.5 ml/min. Once the samples were eluted from the cartridge, a mobile phase of acetonitrile containing 0.01% formic acid was used to move the samples into the mass spectrometer for 4000 ms at a flow rate of 1.25 ml/min/Sciex API5500 triple quadrupole mass spectrometer (Applied Biosystems) equipped with ESI was used to analyze the peptidyl citrulline and internal standard ions.
MRM transition of product and internal standard were monitored at m/z 424.5 to 350.4 and m/z 293 to 247 respectively. The dwell time for each transition was set at 200 ms, and the ESI voltage was used at 5500 with a source temperature of 400° C. Extracted ion peaks for each transition were integrated using the Rapid Fire Integrator software. Peak area of analyte was normalized with internal standard.).
Compounds having an activity designated as “A” provided an IC50≤10 nM; compounds having an activity designated as “B” provided an IC50 11-100 nM; compounds having an activity designated as “C” provided an IC50 101-500 nM; compounds having an activity designated as “D” provided an IC50 501-1000 nM; compounds having an activity designated as “E” provided an IC50>1000 nM.

Sequence of hPAD4 enzyme (Q9UM07 whole entry): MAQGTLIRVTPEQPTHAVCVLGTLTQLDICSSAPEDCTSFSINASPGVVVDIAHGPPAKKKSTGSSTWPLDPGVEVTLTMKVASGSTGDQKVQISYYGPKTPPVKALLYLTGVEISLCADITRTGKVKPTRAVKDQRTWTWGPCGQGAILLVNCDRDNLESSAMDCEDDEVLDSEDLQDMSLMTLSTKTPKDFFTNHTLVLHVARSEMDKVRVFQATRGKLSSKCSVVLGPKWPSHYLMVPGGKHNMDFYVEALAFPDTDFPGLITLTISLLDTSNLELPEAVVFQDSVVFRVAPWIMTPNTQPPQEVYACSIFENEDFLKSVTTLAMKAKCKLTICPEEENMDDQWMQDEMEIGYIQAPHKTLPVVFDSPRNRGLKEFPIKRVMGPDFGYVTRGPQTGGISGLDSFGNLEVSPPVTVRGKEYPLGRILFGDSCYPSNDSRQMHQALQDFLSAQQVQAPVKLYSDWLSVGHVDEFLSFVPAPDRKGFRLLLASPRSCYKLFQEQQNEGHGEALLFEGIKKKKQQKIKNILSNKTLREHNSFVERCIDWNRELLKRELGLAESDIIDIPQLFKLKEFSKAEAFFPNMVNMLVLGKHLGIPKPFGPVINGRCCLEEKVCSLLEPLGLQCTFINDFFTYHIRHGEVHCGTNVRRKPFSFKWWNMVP

SMILES	IC50 [nM]
COc1cccc2cc(-c3nc4cc5c(cc4n3C)CCN(C[C@H]3COCCN3)C5=O)n(CCOC(F)F)c12 [Example 233, (S)-2-(1-(2-(difluoromethoxy)ethyl)-7-methoxy-1H-indol-2-yl)-1-methyl-6-(morpholin-3-ylmethyl)-1,6,7,8-tetrahydro-5H-imidazo[4,5-g]isoquinolin-5-one]	101 to 500
C[C@H](COc1cccc2cc(-c3nc4cc5c(cc4n3C)CCN(C[C@H]3COCCN3)C5=O)n(CC3CC3)c12)n1cnc(F)c1 [Example 235, 2-(1-(cyclopropylmethyl)-7-((R)-2-(4-fluoro-1H-imidazol-1-yl)propoxy)-1H-indol-2-yl)-1-methyl-6-(((S)-morpholin-3-yl)methyl)-1,6,7,8-tetrahydro-5H-imidazo[4,5-g]isoquinolin-5-one]	≤ 10
COc1cccc2cc(-c3nc4cc5c(c(F)c4n3C)CCN(C[C@H]3COCCN3)C5=O)n(CC3CC3)c12 [Example 240, (S)-2-(1-(cyclopropylmethyl)-7-methoxy-1H-indol-2-yl)-9-fluoro-1-methyl-6-(morpholin-3-ylmethyl)-1,6,7,8-tetrahydro-5H-imidazo[4,5-g]isoquinolin-5-one]	101 to 500
C[C@H](COc1cccc2cc(-c3nc4cc5c(c(F)c4n3C)CCN(C[C@H](N)CF)C5=O)n(CC3CC3)c12)n1cnc(F)c1 [Example 241, 6-((S)-2-amino-3-fluoropropyl)-2-(1-(cyclopropylmethyl)-7-((R)-2-(4-fluoro-1H-imidazol-1-yl)propoxy)-1H-indol-2-yl)-9-fluoro-1-methyl-1,6,7,8-tetrahydro-5H-imidazo[4,5-g]isoquinolin-5-one]	≤ 10
C[C@H](COc1cccc2cc(-c3nc4cc5c(c(F)c4n3C)CCN(C[C@H]3COCCN3)C5=O)n(CC3CC3)c12)n1cnc(F)c1 [Example 242, 2-(1-(cyclopropylmethyl)-7-((R)-2-(4-fluoro-1H-imidazol-1-yl)propoxy)-1H-indol-2-yl)-9-fluoro-1-methyl-6-(((S)-morpholin-3-yl)methyl)-1,6,7,8-tetrahydro-5H-imidazo[4,5-g]isoquinolin-5-one]	≤ 10
CC(=O)N1CCC(c2cccc3cc(-c4nc5cc6c(cc5n4C)CCN(C[C@H]4COCCN4)C6=O)n(CC4CC4)c23)CC1 [Example 243, (S)-2-(7-(1-acetylpiperidin-4-yl)-1-(cyclopropylmethyl)-1H-indol-2-yl)-1-methyl-6-(morpholin-3-ylmethyl)-1,6,7,8-tetrahydro-5H-imidazo[4,5-g]isoquinolin-5-one]	11 to 100
COCC(=O)N1CCC(c2cccc3cc(-c4nc5cc6c(cc5n4C)CCN(C[C@H]4COCCN4)C6=O)n(CC4CC4)c23)CC1 [Example 244, (S)-2-(1-(cyclopropylmethyl)-7-(1-(2-methoxyacetyl)piperidin-4-yl)-1H-indol-2-yl)-1-methyl-6-(morpholin-3-ylmethyl)-1,6,7,8-tetrahydro-5H-imidazo[4,5-g]isoquinolin-5-one]	11 to 100
Cc1cc(C(N)=O)c(F)cc1-c1ccc2cc(-c3nc4cc5c(cc4n3C)CCN(C[C@H]3COCCN3)C5=O)n(CC3CC3)c2n1 [Example 245, (S)-4-(1-(cyclopropylmethyl)-2-(1-methyl-6-(morpholin-3-ylmethyl)-5-oxo-5,6,7,8-tetrahydro-1H-imidazo[4,5-g]isoquinolin-2-yl)-1H-pyrrolo[2,3-b]pyridin-6-yl)-2-fluoro-5-methylbenzamide]	101 to 500
Cc1cc(N2CCCS2(=O)=O)ccc1-c1ccc2cc(-c3nc4cc5c(cc4n3C)CCN(C[C@H]3COCCN3)C5=O)n(CC3CC3)c2n1 [Example 246, (S)-2-(1-(cyclopropylmethyl)-6-(4-(1,1-dioxidoisothiazolidin-2-yl)-2-methylphenyl)-1H-pyrrolo[2,3-b]pyridin-2-yl)-1-methyl-6-(morpholin-3-ylmethyl)-1,6,7,8-tetrahydro-5H-imidazo[4,5-g]isoquinolin-5-one]	11 to 100
